According to patent US10633389B2, “CARM1 inhibitors and uses thereof” (Epizyme, Inc., priority 2013, dated 2020):

System: asymmetric di-methyl PABP1 in RKO cells
Assay: RKO methylation assay, In Cell Western (ICW) for asymmetric di-methyl PABP1
Format: cell-based
Details: Homo sapiens, RKO, Cellular potencies, ICW PABP1me2a
Source text: RKO adherent cells were purchased from ATCC (American Type Culture Collection), Manassas, Va., USA. DMEM/Glutamax medium, penicillin-streptomycin, heat inactivated fetal bovine serum, 0.05% trypsin and D-PBS were purchased from Life Technologies, Grand Island, N.Y., USA. Odyssey blocking buffer, 800 CW goat anti-rabbit IgG (H+L) antibody, and Licor Odyssey infrared scanner were purchased from Licor Biosciences, Lincoln, Nebr., USA. Asymmetric di-methyl PABP1 antibody was purchased from Cell Signaling Technology, Danvers, Mass., USA. Methanol was purchased from VWR, Franklin, Mass., USA. 10% Tween 20 was purchased from KPL, Inc., Gaithersburg, Md., USA. Paraformaldehyde (PFA) was purchased from EM Sciences. DRAQ5 was purchased from Biostatus Limited, Leicestershire, UK.
RKO adherent cells were maintained in growth medium (DMEM/Glutamax medium supplemented with 10% v/v heat inactivated fetal bovine serum and 100 units/mL penicillin-streptomycin) and cultured at 37° C. under 5% CO2.
Cell treatment, In Cell Western (ICW) for detection of asymmetric di-methyl PABP1 and DNA content: RKO cells were seeded in assay medium at a concentration of 30,000 cells per mL to a poly-D-lysine coated 384 well culture plate (BD Biosciences 356697) with 50 VL per well. Compound (100 nL) from a 96-well source plate was added directly to 384 well cell plate. Plates were incubated at 37° C., 5% CO2 for 48 hours. After two days of incubation, plates were brought to room temperature outside of the incubator for ten minutes and blotted on paper towels to remove cell media. Cells were fixed for 20 minutes at room temperature by adding 50 ul of 8% PFA followed by aspiration of supernatant with the Biotek EL406 plate washer. Cells were then permeabilized by addition of 50 μL of ice cold 100% methanol directly to each well and incubated for 30 min at room temperature. After 30 min, plates were transferred to a Biotek EL406 plate washer and washed 2 times with 100 μL per well of wash buffer (1×PBS). Next 60 μL per well of Odyssey blocking buffer (Odyssey Buffer with 0.1% Tween 20 (v/v)) were added to each plate and incubated 1 hour at room temperature. Blocking buffer was removed and 20 μL per well of primary antibody was added (asymmetric-methyl PABP1) diluted 1:400 in Odyssey buffer with 0.1% Tween 20 (v/v)) and plates were incubated overnight (16 hours) at 4° C. Plates were washed 5 times with 100 μL per well of wash buffer. Next 20 μL per well of secondary antibody was added (1:800 800 CW goat anti-rabbit IgG (H+L) antibody, 1:2000 DRAQ5 in Odyssey buffer with 0.1% Tween 20 (v/v)) and incubated for 1 hour at room temperature. The plates were washed 5 times with 100 μL per well wash buffer then 2 times with 100 μL per well of water. Plates were allowed to dry at room temperature then imaged on the Licor Odyssey machine which measures integrated intensity at 700 nm and 800 nm wavelengths. Both 700 and 800 channels were scanned.
First, the ratio for each well was determined by:
Each plate included fourteen control wells of DMSO only treatment (minimum inhibition) as well as fourteen control wells for maximum inhibition treated with 20 μM of a reference compound. The average of the ratio values for each control type was calculated and used to determine the percent […] for each test well in the plate. Reference compound was serially diluted three-fold in DMSO for a total of nine test concentrations, beginning at 20 μM.
Percent inhibition was determined and IC50 curves were generated using triplicate wells per concentration of compound. […]

| IC50 [µM] | Compound |
| --- | --- |
| < 5 | CNCC(O)COc1cccc(-c2nc(-c3c(C)noc3C)c(C)c(N3CC(NC(=O)N(C)C)C3)n2)c1 (stereo not shown) [Example 13-3] |
| < 5 | CNC[C@@H](O)COc1ccc(Cl)c(-c2nc(N[C@H]3CN(C4CC4)C[C@@H]3F)c(C)c(-c3c(C)noc3C)n2)c1 [Example 203-3] |
| < 5 | CNCC(O)COc1cccc(-c2nc(N3CCN(C)[C@@H](C)C3)cc(N(C)C3CCOCC3)n2)c1 (stereo partly shown) [Example 502-1a] |
| < 5 | CNCC(O)COc1cccc(-c2nc(-c3c(C)noc3C)c(C)c(N3C[C@@H](C)O[C@@H](C)C3)n2)c1 (stereo partly shown) [Example 164-1a] |
| 10 to 20 | CNCC(O)COc1cccc(-c2nc(NC3CCS(=O)(=O)CC3)c(C)c(-c3c(C)noc3C)n2)c1 (stereo not shown) [Example 59-1a] |
| 10 to 20 | CNCC(O)COc1cccc(-c2nc(-c3cccc(C#N)c3)cc(N(C)C3CCOCC3)n2)c1 (stereo not shown) [Example 622-1a] |
| 10 to 20 | CNCC(O)COc1cccc(-c2nc(C(=O)NCC3CCOCC3)cc(N(C)C3CCOCC3)n2)c1 (stereo not shown) [Example 548-1a] |
| 10 to 20 | CNCC(O)COc1cccc(-c2nc(N[C@@H]3CCOC3)c(C)c(C3=CC(C)(C)NC(C)(C)C3)n2)c1 (stereo partly shown) [Example 415-1a] |
| < 5 | CNCC(O)COc1cccc(-c2nc(N[C@@H]3CCN(C(=O)OC(C)(C)C)C[C@@H]3F)c(C)c(-c3c(C)noc3C)n2)c1 (stereo partly shown) [Example 227-1a] |
| < 5 | CNC[C@@H](O)COc1ccc(Cl)c(-c2nc(-c3c(C)noc3C)c(C)c(N3Cc4cc(F)cnc4C3)n2)c1 [Example 157-3] |
| < 5 | CNCC(O)COc1cccc(-c2nc(-c3csnc3C)cc(N(C)C3CCOCC3)n2)c1 (stereo not shown) [Example 493-1a] |
| < 5 | CNC[C@@H](O)COc1ccc(Cl)c(-c2nc(-c3c(C)noc3C)c(Cl)c(N3CC4(CCOCC4)C3)n2)c1 [Example 229-3] |
| < 5 | CNCC(O)COc1cc(Cl)cc(-c2nc(NC3CCN(CC(F)F)CC3)c(C)c(-c3c(C)noc3C)n2)c1 (stereo not shown) [Example 21-3] |
| 10 to 20 | CNCC(O)COc1cc(Cl)cc(-c2nc(-c3ccc(N(C)C)nc3)c(C)c(N(C)C3CCOCC3)n2)c1 (stereo not shown) [Example 614-1a] |
| < 5 | CNCC(O)COc1cccc(-c2nc(NC3C4COCC43)c(C)c(-c3c(C)noc3C)n2)c1 (stereo not shown) [Example 212-1a] |
| < 5 | CCOC(=O)N1CCC2(C1)CN(c1nc(-c3cc(OC[C@H](O)CNC)ccc3Cl)nc(-c3c(C)noc3C)c1C)C2 [Example 287-3] |
| < 5 | CNC[C@H](O)COc1ccc(F)c(-c2nc(NC3CCOC(C)C3)c(C)c(-c3c(C)noc3C)n2)c1 (stereo partly shown) [Example 73-3] |
| < 5 | CNC[C@H](O)COc1cccc(-c2nc(NC3CCN(C(=O)OC)CC3)c(C)c(-c3c(C)noc3C)n2)c1 [Example 169-1a] |
| < 5 | CCOC(=O)N1CCN(c2nc(-c3cccc(OCC(O)CNC)c3)nc(N[C@@H]3CCOC3)c2C)C[C@H]1C (stereo partly shown) [Example 470-1a] |
| < 5 | CNCC(O)COc1cccc(-c2nc(Nc3cn(C)cn3)c(C)c(-c3c(C)noc3C)n2)c1 (stereo not shown) [Example 210-1a] |
| 10 to 20 | CNCC(O)COc1cccc(-c2nc(-c3cc4ccccc4o3)cc(N(C)C3CCOCC3)n2)c1 (stereo not shown) [Example 570-1a] |
| 10 to 20 | CNCC(O)COc1cc(Cl)cc(-c2nc(-c3ccncc3)c(Br)c(N(C)C3CCOCC3)n2)c1 (stereo not shown) [Example 611-1a] |
| ≥ 20 | CNCC(O)COc1cccc(-c2nc(NC3CNC3)c(C)c(-c3c(C)noc3C)n2)c1 (stereo not shown) [Example 1-3] |
| < 5 | CCO[C@@H]1CCC[C@@H]1Nc1nc(-c2cc(OC[C@H](O)CNC)ccc2Cl)nc(-c2c(C)noc2C)c1C [Example 253-3] |
| 10 to 20 | CNCC(O)COc1cccc(-c2nc(-c3c(C)noc3C)cc(N3CCN[C@@H](C)C3)n2)c1 (stereo partly shown) [Example 40-1a] |
| 10 to 20 | CNCC(O)COc1cccc(-c2nc(NC3C[C@@H](O)[C@H](O)C3)c(C)c(-c3c(C)noc3C)n2)c1 (stereo partly shown) [Example 280-1a] |

| IC50 [µM] | Compound |
| --- | --- |
| < 5 | CNC[C@@H](O)COc1ccc(Cl)c(-c2nc(N[C@@H]3CO[C@H](C)C3)c(C)c(-c3c(C)noc3C)n2)c1 [Example 179-3] |
| < 5 | CCOC(=O)N1CCOC[C@H]1CNc1nc(-c2cc(OC[C@H](O)CNC)ccc2Cl)nc(-c2c(C)noc2C)c1C [Example 25-3] |
| < 5 | CCS(=O)(=O)N1CCN(c2nc(-c3cccc(OCC(O)CNC)c3)nc(N[C@@H]3CCOC3)c2C)CC1 (stereo partly shown) [Example 464-1a] |
| < 5 | CNC[C@@H](O)COc1ccc(Cl)c(-c2nc(-c3c(C)noc3C)c(C)c(N3CCC4(CCN(C5CC5)C4)C3)n2)c1 (stereo partly shown) [Example 138-3] |
| 10 to 20 | CC[C@H]1CN(c2nc(-c3cccc(OCC(O)CNC)c3)nc(-c3c(C)noc3C)c2C)CCN1C1CC1 (stereo partly shown) [Example 178-1a] |
| < 5 | CCS(=O)(=O)N1CCC(Nc2nc(-c3cccc(OCC(O)CNC)c3)nc(-c3c(C)nsc3C)c2C)CC1 (stereo not shown) [Example 70-3] |
| 5 to 10 | CNCC(O)COc1cccc(-c2nc(-c3c(C)noc3C)c(C)c(N3CCN4C(=O)OC[C@@H]4C3)n2)c1 (stereo partly shown) [Example 110-1a] |
| < 5 | CCOC(=O)N1CCC[C@H]1CCNc1nc(-c2cc(OC[C@H](O)CNC)ccc2Cl)nc(-c2c(C)noc2C)c1C [Example 137-3] |
| 10 to 20 | CCOC(=O)c1sc(-c2cc(N(C)C3CCOCC3)nc(-c3cccc(OCC(O)CNC)c3)n2)nc1C (stereo not shown) [Example 565-1a] |
| < 5 | CNC[C@@H](O)COc1ccc(Cl)c(-c2nc(-c3c(C)noc3C)c(C)c(N3CCC4(CCCO4)C3)n2)c1 (stereo partly shown) [Example 289-3] |
| < 5 | CNCC(O)COc1cccc(-c2nc(-c3c(C)noc3C)c(F)c(N3CCN(C(=O)OC)CC3)n2)c1 (stereo not shown) [Example 97-1a] |
| < 5 | CNCC(O)COc1cccc(-c2nc(NC3CCCN(C(=O)OC)C3)c(C)c(-c3c(C)noc3C)n2)c1 (stereo not shown) [Example 201-1a] |
| < 5 | CNC[C@@H](O)COc1ccc(Cl)c(-c2nc(N[C@H]3CCN(C)C[C@H]3F)c(Cl)c(-c3c(C)noc3C)n2)c1 [Example 208-3] |
| 5 to 10 | CNCC(O)COc1cccc(-c2nc(NC3CCOC3)c(C)c(N3CCN(C(C)=O)C[C@H]3C)n2)c1 (stereo partly shown) [Example 421-1a] |
| < 5 | CNCC(O)COc1ccc(Cl)c(-c2nc(NC3(C)CCOCC3)c(Cl)c(-c3c(C)noc3C)n2)c1 (stereo not shown) [Example 137-1a] |
| 10 to 20 | CNCC(O)COc1cccc(-c2nc(-c3c(C)noc3C)cc(N3CCC4(CC3)NC(=O)NC4=O)n2)c1 (stereo not shown) [Example 42-1a] |
| < 5 | CNC[C@@H](O)COc1cccc(-c2nc(N[C@@H]3CCN(C4CC4)C[C@@H]3F)c(Cl)c(-c3c(C)noc3C)n2)c1 [Example 68-3] |
| 5 to 10 | CNCC(O)COc1cccc(-c2nc(-c3c(C)noc3C)c(C)c(N3CCCC4(CN(C(=O)N(C)C)C4)C3)n2)c1 (stereo not shown) [Example 297-1a] |
| < 5 | CNC[C@@H](O)COc1ccc(Cl)c(-c2nc(-c3c(C)noc3C)c(C)c(N3CC4(CCCO4)C3)n2)c1 [Example 121-3] |
| < 5 | CNC[C@@H](O)COc1ccc(Cl)c(-c2nc(-c3c(C)noc3C)c(C)c(N3Cc4cnc(C(F)(F)F)nc4C3)n2)c1 [Example 263-3] |
| < 5 | CCOC(=O)N1CC[C@@H](Nc2nc(-c3cccc(OCC(O)CNC)c3)nc(-c3c(C)noc3C)c2C)[C@H](F)C1 (stereo partly shown) [Example 229-1a] |
| < 5 | CNC[C@@H](O)COc1ccc(Cl)c(-c2nc(N[C@@H]3CCO[C@H](C)C3)c(Cl)c(-c3c(C)noc3C)n2)c1 [Example 155-3] |
| < 5 | CNCC(O)COc1cccc(-c2nc(-c3c(C)noc3C)cc(N3CCNC(C(F)(F)F)C3)n2)c1 (stereo not shown) [Example 131-1a] |
| < 5 | CNCC(O)COc1cccc(-c2nc(-c3c(C)noc3C)c(C)c(N3CCN(C(=O)C(F)F)CC3)n2)c1 (stereo not shown) [Example 107-1a] |
| 10 to 20 | CNCC(O)COc1cccc(-c2nc(C3CCNCC3)cc(N(C)C3CCOCC3)n2)c1 (stereo not shown) [Example 615-1a] |
| < 5 | CNC[C@@H](O)COc1ccc(Cl)c(-c2nc(N[C@H]3CC[C@@H](OC)C3)c(C)c(-c3c(C)noc3C)n2)c1 [Example 212-3] |
